From patent US12122761B2, “2-azaspiro[3.4]octane derivatives as M4 agonists” (NOVARTIS AG, priority 2019, dated 2024) come the findings set out here.

Bounds are passed on as bounds.

Assay [1] deals with T1, Cloned human M1 receptor (CHRM1) stably expressed in HEK293 cells (Homo sapiens, UniProt P11229).
T1 construct: expressed in transfected cells; host or cells: HEK293
T1 sequence (P11229 1-460): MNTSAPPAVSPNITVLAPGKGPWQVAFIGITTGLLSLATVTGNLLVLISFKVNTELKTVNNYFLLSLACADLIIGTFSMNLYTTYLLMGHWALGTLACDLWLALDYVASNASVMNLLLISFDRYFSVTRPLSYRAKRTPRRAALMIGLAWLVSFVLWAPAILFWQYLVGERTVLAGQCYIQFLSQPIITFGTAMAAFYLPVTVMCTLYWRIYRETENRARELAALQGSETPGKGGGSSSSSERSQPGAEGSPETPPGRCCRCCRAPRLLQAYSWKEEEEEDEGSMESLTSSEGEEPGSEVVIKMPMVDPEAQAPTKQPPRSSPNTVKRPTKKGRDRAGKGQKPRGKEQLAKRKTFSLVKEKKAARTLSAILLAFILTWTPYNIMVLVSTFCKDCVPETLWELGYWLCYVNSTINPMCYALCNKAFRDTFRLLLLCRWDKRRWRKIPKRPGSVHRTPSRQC
The assay can be described thus: CHRM1 Ca++ Flux Assay (agonist mode, FDSS 7000EX). The class given is cell-based. Particulars: for Emax: HEK293, Percent Activity, read-out: M1 FDSS PA; for EC50: geometric mean if tested more than once; for M1 FDSS PA: Percent Activity. As to the method:
(§1) The above examples were characterized by measuring the intracellular mobilization of Ca++ ions caused by signaling events mediated by the receptor. The Intra-cellular Calcium flux levels were captured by the highly sensitive Ca++ indicator, Calcium Assay Kit (BD Biosciences, Catalog Number 640178). The fluorescent activity from all receptors were monitored by the fluorescent imager, FDSS 7000EX (Hamamatsu) over a span of 3 minutes.
Cloned human M1 receptor (CHRM1) was stably expressed in HEK293 cells and were grown and maintained in a monolayer culture with DMEM/High Glucose (Life Technologies) supplemented with 10% Fetal Bovine Serum, 1× Pen-Strep, and 0.5 mg/mL Geneticin in a humidified atmosphere (5% CO2) at 37° C. The cultures were grown to 90% confluency in T150 flasks (Corning) and washed with 1×DPBS and lifted with 0.05% Trypsin (Life Technologies). The cells were then spun (1K rpm, 3 minutes) and frozen using Recovery Cell Culture Freezing Media (Gibco Technologies). Cells were stored in liquid nitrogen and thawed a day before the assay.
Prior to the day of the assay, stable HEK293 M1 cells were thawed and plated on 384 well black walled clear bottom TC treated plates (Greiner Cat #781091) at 25K cells/well with DMEM/High Glucose supplemented with 10% FBS (Hyclone) Pen-Strep (Life Technologies) and kept overnight in a humidified atmosphere (5% CO2) at 37° C. The following day, cells were loaded with 20 uL Ca^++ dye (BD Biosciences) using Loading Buffer (HBSS +Ca/+Mg, 20 mM HEPES) and placed back in cell incubator for a minimum of 1 hour. The dye was replaced with 45 μL Assay Buffer (HBSS −Ca/−Mg, 20 mM HEPES) and kept at room temperature prior to running on cell imager. Compounds were prepared in Assay Buffer and 5 uL was added to the cells. The FDSS 7000EX (Hamamatsu) was used to acquire Ca++ traces for 3 minutes from cells treated with 11 point dose in triplicate in order to generate dose response curves in agonist mode. All compounds were serially diluted in DMSO then prepared in Assay Buffer for Ca^++ flux studies. The dose response curves were generated from the average of triplicate wells obtained from each data point and used a non-linear regression of four parameter dose response algorithm. The Percent Activity (PA) was measured to EC100 of Carbachol.

The target of assay [2] is T2, human cloned CHRM5 receptor (M5_CHO) (Homo sapiens, UniProt P08912).
T2 construct: expressed in transfected cells; host or cells: CHO (M5_CHO)
T2 sequence (P08912 1-532): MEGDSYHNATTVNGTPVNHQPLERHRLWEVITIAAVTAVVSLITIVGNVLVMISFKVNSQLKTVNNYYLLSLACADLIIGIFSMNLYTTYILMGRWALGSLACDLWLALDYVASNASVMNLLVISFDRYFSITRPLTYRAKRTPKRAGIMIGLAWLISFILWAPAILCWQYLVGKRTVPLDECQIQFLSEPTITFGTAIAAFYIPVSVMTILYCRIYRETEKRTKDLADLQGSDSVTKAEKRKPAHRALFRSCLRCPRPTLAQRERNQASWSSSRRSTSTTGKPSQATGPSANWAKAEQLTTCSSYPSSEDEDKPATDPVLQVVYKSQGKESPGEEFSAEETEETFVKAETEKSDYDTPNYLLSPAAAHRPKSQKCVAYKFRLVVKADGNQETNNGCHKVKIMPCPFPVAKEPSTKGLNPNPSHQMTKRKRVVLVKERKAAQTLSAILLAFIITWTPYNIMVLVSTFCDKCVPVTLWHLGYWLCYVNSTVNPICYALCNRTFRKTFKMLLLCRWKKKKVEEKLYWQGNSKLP
Description: CHRM5 Ca++ Flux Assay (agonist mode, FDSS 7000EX). The settings on record: for Emax / M5 FDSS PA: Percent Activity measured to EC100 of Carbachol; for Emax: read-out: M5 FDSS PA; for EC50: agonist mode, geometric mean if tested more than once, read-out: M5 FDSS EC50. The class given is cell-based. The method, then: as §1
CHO-K1 cells stably expressing the human cloned CHRM3 receptor (M3_CHO cells) were grown and maintained in a monolayer culture with F12/HAM (Life Technologies) supplemented with 10% Fetal Bovine Serum, 1× Pen-Strep, and 0.4 mg/mL Geneticin in a humidified atmosphere (5% CO2) at 37° C. The cultures were grown to 80-9 0% confluency in T150 flasks (Corning) and washed with 1×DPBS and lifted with 0.05% Trypsin (Life Technologies). The cells were then spun (1K rpm, 3 minutes) and frozen using Recovery Cell Culture Freezing Media (Gibco Technologies). Cells were stored in liquid nitrogen and thawed a day before the assay. A similar procedure was used for cells stably expressing the human cloned CHRM5 receptor (M5_CHO).
Prior to the day of the assay, stable M3_CHO or M5_CHO cells were thawed and plated on Greiner 384 well black TC treated plates at 12K cells/well in F12/DMEM supplemented with 10% FBS (Hyclone) and kept overnight in a humidified atmosphere (5% CO2) at 37° C. The next day, cells were loaded with Ca^++ dye (BD Biosciences) using Loading Buffer (HBSS +Ca/+Mg, 20 mM HEPES, 2.5 mM Probenecid) and placed back in cell incubator for a minimum of 1 hour. After incubation, the dye was replaced with Assay Buffer (HBSS −Ca/−Mg, 20 mM HEPES, 2.5 mM Probenecid) and kept at room temperature in the dark before running on cell imager. The FDSS 7000EX (Hamamatsu) was used to acquire Ca^++ traces from cells treated with 11 point dose response of compounds in triplicate in order to generate dose response curves in agonist mode. All compounds were serially diluted in DMSO then prepared in Assay Buffer for Ca^++ flux studies. The dose response curves were generated from the average of triplicate wells obtained from each data point and used a non-linear regression of four parameter dose response algorithm. The Percent Activity (PA) was measured to EC100 of Carbachol.

For orientation: EC50 means the concentration at which the effect is half-maximal. Consider `COc1ccccc1C1CCN([C@@H]2CCC3(C2)CN(c2nccnc2C)C3)CC1` [Example 5J, (R)-6-(4-(2-methoxyphenyl)piperidin-1-yl)-2-(3-methylpyrazin-2-yl)-2-azaspiro[3.4]octane], for which, in assay [1], the Emax stood at 60% and the EC50 was determined as 0.1 µM. In addition, in assay [2], the Emax came out at 0% and the EC50 was above 25 µM.
`O=C(N1CC2(CC[C@@H](N3CCC(c4cc(F)ccc4C4(O)CCOCC4)CC3)C2)C1)C1(F)CC1` (single isomer, unassigned) [Example 9I, (R)-(6-(4-(5-fluoro-2-(4-hydroxytetrahydro-2H-pyran-4-yl)phenyl)piperidin-1-yl)-2-azaspiro[3.4]octan-2-yl)(1-fluorocyclopropyl)methanone or (S)-(6-(4-(5-fluoro-2-(4-hydroxytetrahydro-2H-pyran-4-yl)phenyl)piperidin-1-yl)-2-azaspiro[3.4]octan-2-yl)(1-fluorocyclopropyl)methanone]: in assay [1], the “M1 FDSS PA” value amounted to 23% and the EC50 came out at 0.092 µM. Also, in assay [2], the “M5 FDSS PA” value was 0% and the EC50 was above 25 µM.
As for `O=C(N1CC2(CC[C@@H](N3CCC(c4ccccc4OCc4ncccn4)CC3)C2)C1)C1(F)CC1` (single isomer, unassigned) [Example 7M, (R)-(1-fluorocyclopropyl)(6-(4-(2-(pyrimidin-2-ylmethoxy)phenyl)piperidin-1-yl)-2-azaspiro[3.4]octan-2-yl)methanone or (S)-(1-fluorocyclopropyl)(6-(4-(2-(pyrimidin-2-ylmethoxy)phenyl)piperidin-1-yl)-2-azaspiro[3.4]octan-2-yl)methanone], in assay [1], the “M1 FDSS PA” value came out at 84% and a half-maximal effect (EC50) was put at 0.01 µM. Also, in assay [2], the “M5 FDSS PA” value came out at 0% and the EC50 was above 25 µM.
With `Fc1cncc(N2CC3(CC[C@@H](N4CCC(c5cc(F)ccc5OC5CCOCC5)CC4)C3)C2)c1` (single isomer, unassigned) [Example 10A, (R)-6-(4-(5-fluoro-2-((tetrahydro-2H-pyran-4-yl)oxy)phenyl)piperidin-1-yl)-2-(5-fluoropyridin-3-yl)-2-azaspiro[3.4]octane or (S)-6-(4-(5-fluoro-2-((tetrahydro-2H-pyran-4-yl)oxy)phenyl)piperidin-1-yl)-2-(5-fluoropyridin-3-yl)-2-azaspiro[3.4]octane], in assay [1], the “M1 FDSS PA” value is given as 34% and a half-maximal response (EC50) required 1.33 µM. Also, in assay [2], the “M5 FDSS PA” value came to 0% and the EC50 is above 25 µM.
Consider `c1ccc(C2CCN([C@@H]3CCC4(C3)CN(c3ncncn3)C4)CC2)c(OCC2CCOCC2)c1` [Example 5Q, (R)-6-(4-(2-((tetrahydro-2H-pyran-4-yl)methoxy)phenyl)piperidin-1-yl)-2-(1,3,5-triazin-2-yl)-2-azaspiro[3.4]octane], for which, in assay [1], the Emax was found to be 0% and the EC50 was above 25 µM. In addition, in assay [2], the Emax was 0% and the EC50 is above 25 µM.
`O=C(N1CC2(CC[C@@H](N3CCC(c4cc(F)ccc4OC4CC5(COC5)C4)CC3)C2)C1)C1(F)CC1` (single isomer, unassigned) [Example 11B, (R)-(6-(4-(2-((2-oxaspiro[3.3]heptan-6-yl)oxy)-5-fluorophenyl)piperidin-1-yl)-2-azaspiro[3.4]octan-2-yl)(1-fluorocyclopropyl)methanone or (S)-(6-(4-(2-((2-oxaspiro[3.3]heptan-6-yl)oxy)-5-fluorophenyl)piperidin-1-yl)-2-azaspiro[3.4]octan-2-yl)(1-fluorocyclopropyl)methanone]: in assay [1], the “M1 FDSS PA” value came to 9% and the EC50 was determined as 0.03 µM. Moreover, in assay [2], the “M5 FDSS PA” value is listed as 0% and the EC50 was above 25 µM.
As for `O=C(N1CC2(CC[C@@H](N3CCC(c4cc(F)ccc4C4CCOCC4)CC3)C2)C1)C1(F)CC1` (single isomer, unassigned) [Example 9L, (R)-(6-(4-(5-fluoro-2-(tetrahydro-2H-pyran-4-yl)phenyl)piperidin-1-yl)-2-azaspiro[3.4]octan-2-yl)(1-fluorocyclopropyl)methanone or (S)-(6-(4-(5-fluoro-2-(tetrahydro-2H-pyran-4-yl)phenyl)piperidin-1-yl)-2-azaspiro[3.4]octan-2-yl)(1-fluorocyclopropyl)methanone], in assay [1], the “M1 FDSS PA” value is 31% and the midpoint of the response, the EC50, lay at 0.569 µM. Further, in assay [2], the “M5 FDSS PA” value is listed as 0% and the EC50 is above 25 µM.
As to `COc1ccccc1C1CCN([C@@H]2CCC3(C2)CN(c2cccnc2)C3)CC1` [Example 5K, (R)-6-(4-(2-methoxyphenyl)piperidin-1-yl)-2-(pyridin-3-yl)-2-azaspiro[3.4]octane], the Emax turned out to be 54% in assay [1] and 0% in assay [2]. In addition, the EC50 in assay [1] was 0.284 µM; in assay [2], above 25 µM.
Turning to `COc1ccc(Cl)cc1C1CCN([C@H]2CCC3(C2)CN(C(=O)C2(F)CC2)C3)CC1` (single isomer, unassigned) [Example 8A, (S)-(6-(4-(5-chloro-2-methoxyphenyl)piperidin-1-yl)-2-azaspiro[3.4]octan-2-yl)(1-fluorocyclopropyl)methanone or (R)-(6-(4-(5-chloro-2-methoxyphenyl)piperidin-1-yl)-2-azaspiro[3.4]octan-2-yl)(1-fluorocyclopropyl)methanone], in assay [1], the “M1 FDSS PA” value turned out to be 16% and the EC50 was 0.438 µM. Further, in assay [2], the “M5 FDSS PA” value turned out to be 0% and the EC50 was above 25 µM.
